From ChEMBL document CHEMBL1156492, “(R)- and (S)-verapamil differentially modulate the multidrug-resistant protein MRP1” (J Biol Chem, 2007)
Active and inactive are the calls of the source. The rule behind the calls is not given here.

How the values were obtained:
Assay type in all cases: functional, cell-based
[1] = test system: BHK-21; assay: Cytotoxicity against human MRP1 expressing hamster BHK21 cells at 10 to 20 uM by MTT assay; settings: Mesocricetus auratus
[2] = test system: BHK-21; assay: Cytotoxicity against hamster BHK21 cells by MTT assay; settings: Mesocricetus auratus
[3] = test system: BHK-21; assay: Cytotoxicity against human MRP1 expressing hamster BHK21 cells after 72 hrs by MTT assay; settings: Mesocricetus auratus, BHK-21, 72 h
[4] = test system: BHK-21; assay: Cytotoxicity against hamster BHK21 cells after 72 hrs by MTT assay; settings: Mesocricetus auratus, BHK-21, 72 h
[5] = test system: BHK-21; assay: Decrease in intracellular glutathione concentration in human MRP1 expressing hamster BHK21 cells; settings: Mesocricetus auratus
[6] = test system: BHK-21; assay: Decrease in intracellular glutathione concentration in human MRP1 expressing hamster BHK21 cells at 5 uM; settings: Mesocricetus auratus

COc1ccc(CCN(C)CCCC(C#N)(c2ccc(OC)c(OC)c2)C(C)C)cc1OC (racemic)
Activity [1]: Active | Activity [2]: inactive

CC[C@]1(O)C[C@H]2CN(CCc3c([nH]c4ccccc34)[C@@](C(=O)OC)(c3cc4c(cc3OC)N(C=O)[C@H]3[C@@](O)(C(=O)OC)[C@H](OC(C)=O)[C@]5(CC)C=CCN6CC[C@]43[C@@H]65)C2)C1 [VINCRISTINE]
IC50 [3]: 9.42 nM | IC50 [4]: 1.51 nM

COc1ccc(CCN(C)CCC[C@](C#N)(c2ccc(OC)c(OC)c2)C(C)C)cc1OC
Activity [5]: inactive

COc1ccc(CCN(C)CCC[C@@](C#N)(c2ccc(OC)c(OC)c2)C(C)C)cc1OC
Activity [5]: Active | Activity [6]: Active
